Consider 4 molecules from ChEMBL document CHEMBL2074110, “Characterization, cDNA cloning, and functional expression of mouse ileal sodium-dependent bile acid transporter” (J Biochem, 1999).

Format in all cases: functional, cell-based
What all share (conditions): ileocyte

Series [1] addresses T1, Ileal sodium/bile acid cotransporter (Mus musculus, UniProt P70172).
T1 sequence (P70172 whole entry): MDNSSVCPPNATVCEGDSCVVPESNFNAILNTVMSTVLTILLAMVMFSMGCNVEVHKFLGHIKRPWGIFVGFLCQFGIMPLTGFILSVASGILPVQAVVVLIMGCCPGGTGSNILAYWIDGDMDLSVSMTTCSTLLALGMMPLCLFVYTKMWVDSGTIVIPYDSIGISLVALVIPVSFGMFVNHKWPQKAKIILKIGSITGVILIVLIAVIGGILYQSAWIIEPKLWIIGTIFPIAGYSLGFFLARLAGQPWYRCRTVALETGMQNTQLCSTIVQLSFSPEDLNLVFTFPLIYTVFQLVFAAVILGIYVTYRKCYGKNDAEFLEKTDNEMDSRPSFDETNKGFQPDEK
The experiment in a line: TP_TRANSPORTER: inhibition of Taurocholate uptake (Taurocholate: 0.72 uM, GC: a 100-fold excess) in isolated mouse ileocytes.

In series [2] the target is T1, Ileal sodium/bile acid cotransporter. The experiment in a line: TP_TRANSPORTER: inhibition of Taurocholate uptake (Taurocholate: 0.72 uM, Deoxycholate: a 100-fold excess) in isolated mouse ileocytes.
Series [3] shares this target. The experiment in a line: TP_TRANSPORTER: inhibition of Taurocholate uptake (Taurocholate: 0.72 uM, CDCA: a 100-fold excess) in isolated mouse ileocytes.
Series [4] shares this target. The experiment in a line: TP_TRANSPORTER: inhibition of Taurocholate uptake (Taurocholate: 0.72 uM, Lithocholate: a 100-fold excess) in isolated mouse ileocytes.

As for `C[C@H](CCC(=O)NCC(=O)O)[C@H]1CC[C@H]2[C@@H]3[C@H](O)C[C@@H]4C[C@H](O)CC[C@]4(C)[C@H]3C[C@H](O)[C@]12C` [GLYCOCHOLIC ACID], the Activity entry in series [1] was “inhibitor [+]”.

With `C[C@H](CCC(=O)O)[C@H]1CC[C@H]2[C@@H]3CC[C@@H]4C[C@H](O)CC[C@]4(C)[C@H]3C[C@H](O)[C@]12C` [DEOXYCHOLIC ACID], the Activity result in series [2] is “inhibitor [+]”.

Consider `C[C@H](CCC(=O)O)[C@H]1CC[C@H]2[C@@H]3[C@H](O)C[C@@H]4C[C@H](O)CC[C@]4(C)[C@H]3CC[C@]12C` [CHENODIOL], for which, in series [3], the Activity entry was “inhibitor [+]”.

In the case of `C[C@H](CCC(=O)O)[C@H]1CC[C@H]2[C@@H]3CC[C@@H]4C[C@H](O)CC[C@]4(C)[C@H]3CC[C@]12C` [LITHOCHOLIC ACID], in series [4], the Activity entry was “inhibitor [+]”.
